{"source": "patent US12459974B2", "about": "“Bicyclic peptide ligands specific for Nectin-4” (priority 2018, dated 2025)", "note": "*1 amine or outer side, *2 acyl side, *3 side chain or, on linkers, in order; H or OH if unused. Where a SMILES comes first, the peptide text is derived from it. Bridges are numbered along the chain shown (N, C = ends). [ ]: non-standard residue; d: D form. TATA = O=C(CC[*:1])N1CN(C(=O)CC[*:2])CN(C(=O)CC[*:3])C1; 1Nal = N[C@@H](Cc1cccc2ccccc12)C(=O)O"}
{"target": "T1, human Nectin-4 (Homo sapiens, UniProt Q96NY8)", "T1 sequence (Q96NY8 32-510)": "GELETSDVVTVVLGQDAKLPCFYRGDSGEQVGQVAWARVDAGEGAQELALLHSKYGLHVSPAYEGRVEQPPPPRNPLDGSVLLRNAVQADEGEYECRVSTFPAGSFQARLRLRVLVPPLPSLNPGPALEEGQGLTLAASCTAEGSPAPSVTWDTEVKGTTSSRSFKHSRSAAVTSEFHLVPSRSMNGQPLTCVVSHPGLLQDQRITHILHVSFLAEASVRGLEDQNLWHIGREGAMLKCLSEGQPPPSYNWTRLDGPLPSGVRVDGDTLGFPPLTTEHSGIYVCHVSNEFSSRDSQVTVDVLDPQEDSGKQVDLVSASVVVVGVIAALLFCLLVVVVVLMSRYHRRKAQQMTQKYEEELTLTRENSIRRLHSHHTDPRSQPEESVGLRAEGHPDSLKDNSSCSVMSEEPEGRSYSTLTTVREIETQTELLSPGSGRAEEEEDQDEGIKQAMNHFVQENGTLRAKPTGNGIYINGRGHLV", "assay": "Nectin-4 competition binding assay (fluorescence polarisation)", "settings": "competition with fluorescent peptide SEQ ID NO: 217; read-out: Ki", "protocol": "Peptides were diluted to an appropriate concentration in assay buffer as described in the direct binding assay with a maximum of 5% DMSO, then serially diluted 1 in 2. Five μL of diluted peptide was added to the plate followed by 10 μL of human Nectin-4, then 10 μL fluorescent peptide added. Measurements were conducted as for the direct binding assay, however the gain was determined prior to the first measurement. Data analysis was in Systat Sigmaplot version 12.0 where the mP values were fit to a user defined cubic equation to generate a Ki value: • f=ymin+(ymax−ymin)/Lig*((Lig*((2*((Klig+Kcomp+Lig+Comp-Prot*c)^2-3*(Kcomp*(Lig-Prot*c)+Klig*(Comp-Prot*c)+Klig*Kcomp))^0.5*COS(ARCCOS((−2*(Klig+Kcomp+Lig+Comp-Prot*c)^3+9*(Klig+Kcomp+Lig+Comp-Prot*c)*(Kcomp*(Lig-Prot*c)+Klig*(Comp-Prot*c)+Klig*Kcomp)−27*(−1*Klig*Kcomp*Prot*c)/(2*((((Klig+Kcomp+Lig+Comp-Prot*c)^2−3*(Kcomp*(Lig-Prot*c)+Klig*(Comp-Prot*c)+Klig*Kcomp))^3)^0.5)))/3))−(Klig+Kcomp+Lig+Comp-Prot*c)))/((3*Klig)+((2*((Klig+Kcomp+Lig+Comp-Prot*c)^2−3*(Kcomp*(Lig-Prot*c)+Klig*(Comp-Prot*c)+Klig*Kcomp))^0.5*COS (ARCCOS ((−2*(Klig+Kcomp+Lig+Comp-Prot*c)^3+9*(Klig+Kcomp+Lig+Comp-Prot*c)*(Kcomp*(Lig-Prot*c)+Klig*(Comp-Prot*c)+Klig*Kcomp)-27*(−1*Klig*Kcomp*Prot*c))/(2*((((Klig+Kcomp+Lig+Comp-Prot*c)^2-3*(Kcomp*(Lig-Prot*c)+Klig*(Comp-Prot+c)+Klig*Kcomp))^3)^0.5))/3)−(Klig+Kcomp+Lig+Comp-Prot*c)))).\n“Lig”, “KLig” and “Prot” were all defined values relating to: fluorescent peptide concentration, the Kd of the fluorescent peptide and Nectin concentration respectively.", "units": {"Ki": "nM"}}
{"smiles": "CC[C@H](C)[C@@H]1NC(=O)[C@H](CCCNC(=N)N)NC(=O)[C@H](CC(N)=O)NC(=O)[C@@H]2CSCCC(=O)N3CN(CN(C3)C(=O)CCSC[C@H](NC(=O)[C@H](C)NC(=O)[C@H](CCCCN)NC(=O)[C@H](CCC(N)=O)NC(C)=O)C(=O)N[C@@H](C)C(=O)N3CCC[C@H]3C(=O)N[C@@H](CC(C)C)C(=O)N[C@@H](CO)C(=O)N[C@@H](CC(=O)O)C(=O)N[C@@H](Cc3ccc(O)cc3)C(=O)N[C@@H](Cc3c[nH]c4ccccc34)C(=O)N2)C(=O)CCSC[C@@H](C(N)=O)NC1=O", "note": "[BCY7624, Ac-QKA-(SEQ ID NO: 34)] (Ac-QKACAPLSDYWCNRIC-NH2; linker 4-12-16 via TATA; C-terminus assumed)", "Ki": 571}
{"smiles": "CC[C@H](C)[C@@H]1NC(=O)[C@@H]2CCCN2C(=O)[C@H]([C@@H](C)O)NC(=O)[C@H](CO)NC(=O)[C@H](Cc2c[nH]c3ccccc23)NC(=O)[C@H](CC(N)=O)NC(=O)[C@H](CCCCNC(=N)N)NC(=O)[C@H](CCSC)NC(=O)[C@@H]2CSCCC(=O)N3CN(CN(C3)C(=O)CCSC[C@H](NC(=O)[C@H](CC(=O)O)NC(=O)[C@H](CC(=O)O)NC(=O)[C@H](CC(=O)O)NC(C)=O)C(=O)N3CCC[C@H]3C(=O)N[C@@H](Cc3ccccc3)C(=O)N[C@H](CC(=O)O)C(=O)N2)C(=O)CCSC[C@@H](C(N)=O)NC(=O)[C@H](Cc2c[nH]c3ccccc23)NC1=O", "note": "[BCY8028, Ac-DDD-(SEQ ID NO: 115)]", "Ki": 61.9}
{"smiles": "CC[C@H](C)[C@@H]1NC(=O)[C@@H]2CCCN2C(=O)[C@H](Cc2c[nH]c3ccccc23)NC(=O)[C@H](CO)NC(=O)[C@H](Cc2c[nH]c3ccccc23)NC(=O)[C@H](CC(=O)O)NC(=O)[C@H](CCC(=O)O)NC(=O)[C@H](CCC(N)=O)NC(=O)[C@@H]2CSCCC(=O)N3CN(CN(C3)C(=O)CCSC[C@H](NC(=O)[C@H](C)N)C(=O)N3CCC[C@H]3C(=O)N[C@@H](Cc3ccccc3)C(=O)NCC(=O)N2)C(=O)CCSC[C@@H](C(=O)N[C@@H](CC(C)C)C(=O)N[C@@H](CO)C(=O)N[C@@H](CCC(=O)O)C(N)=O)NC(=O)[C@H](Cc2c[nH]c3ccccc23)NC1=O", "note": "[BCY3398, A-(SEQ ID NO: 56)-LSE] (H-ACPFGCQEDWSWPIWCLSE-NH2; linker 2-6-16 via TATA; N-terminus and C-terminus assumed)", "Ki": 164}
{"smiles": "CC[C@H](C)[C@@H]1NC(=O)[C@@H]2CCCN2C(=O)[C@H](Cc2c[nH]c3ccccc23)NC(=O)[C@H](CO)NC(=O)[C@H](Cc2c[nH]c3ccccc23)NC(=O)[C@H](CO)NC(=O)[C@H](CCCCN)NC(=O)[C@H](CCSC)NC(=O)[C@@H]2CSCCC(=O)N3CN(CN(C3)C(=O)CCSC[C@H](NC(=O)[C@H](CO)NC(=O)[C@H](CC(=O)O)NC(=O)[C@@H](N)Cc3c[nH]cn3)C(=O)N3CCC[C@H]3C(=O)N[C@@H](Cc3ccccc3)C(=O)NCC(=O)N2)C(=O)CCSC[C@@H](C(=O)N[C@@H](C)C(N)=O)NC(=O)[C@H](Cc2c[nH]c3ccccc23)NC1=O", "note": "[BCY3393, HDS-(SEQ ID NO: 51)-A] (H-HDSCPFGCMKSWSWPIWCA-NH2; linker 4-8-18 via TATA)", "Ki": 173}
{"smiles": "CC[C@H](C)[C@@H]1NC(=O)[C@H](CCCNC(=N)N)NC(=O)[C@H](CC(N)=O)NC(=O)[C@@H]2CSCCC(=O)N3CN(CN(C3)C(=O)CCSC[C@H](NC(=O)[C@H](Cc3c[nH]c4ccccc34)NC(=O)[C@H](CCCCN)NC(=O)[C@H](CCC(N)=O)NC(C)=O)C(=O)N[C@@H](C)C(=O)N3CCC[C@H]3C(=O)N[C@@H](CC(C)C)C(=O)N[C@@H](CO)C(=O)N[C@@H](CC(=O)O)C(=O)N[C@@H](Cc3ccc(O)cc3)C(=O)N[C@@H](Cc3cccc4ccccc34)C(=O)N2)C(=O)CCSC[C@@H](C(N)=O)NC1=O", "note": "[BCY7998, Ac-QKW-(SEQ ID NO: 153)] (Ac-QKWCAPLSDY[1Nal]CNRIC-NH2; linker 4-12-16 via TATA; C-terminus assumed)", "Ki": 135}
{"smiles": "CC[C@H](C)[C@@H]1NC(=O)[C@H](C)NC(=O)[C@H](CC(N)=O)NC(=O)[C@@H]2CSCCC(=O)N3CN(CN(C3)C(=O)CCSC[C@H](NC(=O)[C@H](Cc3c[nH]c4ccccc34)NC(=O)[C@H](CCCCN)NC(=O)[C@H](CCC(N)=O)NC(C)=O)C(=O)N[C@@H](C)C(=O)N3CCC[C@H]3C(=O)N[C@@H](CC(C)C)C(=O)N[C@@H](CO)C(=O)N[C@@H](CC(=O)O)C(=O)N[C@@H](Cc3ccc(O)cc3)C(=O)N[C@@H](Cc3c[nH]c4ccccc34)C(=O)N2)C(=O)CCSC[C@@H](C(N)=O)NC1=O", "note": "[BCY7632, Ac-QKW-(SEQ ID NO: 107)] (Ac-QKWCAPLSDYWCNAIC-NH2; linker 4-12-16 via TATA; C-terminus assumed)", "Ki": 123}
{"smiles": "CC[C@H](C)[C@@H]1NC(=O)[C@@H]2CCCN2C(=O)[C@H](Cc2c[nH]c3ccccc23)NC(=O)[C@H](C)NC(=O)[C@H](Cc2c[nH]c3ccccc23)NC(=O)[C@H](CC(N)=O)NC(=O)[C@H](CCCCN)NC(=O)[C@H](CCSC)NC(=O)[C@@H]2CSCCC(=O)N3CN(CN(C3)C(=O)CCSC[C@H](NC(=O)[C@H](C)N)C(=O)N3CCC[C@H]3C(=O)N[C@@H](Cc3ccccc3)C(=O)NCC(=O)N2)C(=O)CCSC[C@@H](C(=O)N[C@H](C(=O)N[C@@H](CC(N)=O)C(=O)N[C@@H](CCCCN)C(N)=O)[C@@H](C)O)NC(=O)[C@H](Cc2c[nH]c3ccccc23)NC1=O", "note": "[BCY7424, A-(SEQ ID NO: 30)-TNK] (H-ACPFGCMKNWAWPIWCTNK-NH2; linker 2-6-16 via TATA; N-terminus and C-terminus assumed)", "Ki": 562}
{"smiles": "CC[C@H](C)[C@@H]1NC(=O)[C@@H]2CCCN2C(=O)[C@H](Cc2c[nH]c3ccccc23)NC(=O)[C@H](CO)NC(=O)[C@H](Cc2c[nH]c3ccccc23)NC(=O)CNC(=O)[C@H](CCC(=O)O)NC(=O)[C@H](CCSC)NC(=O)[C@@H]2CSCCC(=O)N3CN(CN(C3)C(=O)CCSC[C@H](NC(=O)[C@H](C)NC(=O)[C@H](CC(=O)O)NC(=O)[C@@H](N)Cc3c[nH]cn3)C(=O)N3CCC[C@H]3C(=O)N[C@@H](Cc3ccccc3)C(=O)NCC(=O)N2)C(=O)CCSC[C@@H](C(=O)N[C@@H](C)C(N)=O)NC(=O)[C@H](Cc2c[nH]c3ccccc23)NC1=O", "note": "[BCY3390, HDA-(SEQ ID NO: 48)-A] (H-HDACPFGCMEGWSWPIWCA-NH2; linker 4-8-18 via TATA; N-terminus and C-terminus assumed)", "Ki": 302}
{"smiles": "CC[C@H](C)[C@@H]1NC(=O)[C@H](CCCNC(=N)N)NC(=O)CNC(=O)[C@@H]2CSCCC(=O)N3CN(CN(C3)C(=O)CCSC[C@@H](C(=O)N[C@@H](C)C(N)=O)NC1=O)C(=O)CCSC[C@H](NC(=O)[C@H](Cc1c[nH]c3ccccc13)NC(=O)[C@H](CC(=O)O)NC(=O)[C@@H](N)CC(=O)O)C(=O)N[C@@H](C)C(=O)N1CCC[C@H]1C(=O)N[C@@H](CC(C)C)C(=O)N[C@@H](CC(=O)O)C(=O)N[C@@H](CC(=O)O)C(=O)N[C@@H](Cc1ccc(O)cc1)C(=O)N[C@@H](Cc1c[nH]c3ccccc13)C(=O)N2", "note": "[BCY433, DDW-(SEQ ID NO: 32)-A] (H-DDWCAPLDDYWCGRICA-NH2; linker 4-12-16 via TATA; N-terminus and C-terminus assumed)", "Ki": 69.4}
{"smiles": "CC[C@H](C)[C@@H]1NC(=O)[C@@H]2CCCN2C(=O)[C@H](Cc2c[nH]c3ccccc23)NC(=O)[C@H](CO)NC(=O)[C@H](Cc2c[nH]c3ccccc23)NC(=O)[C@H](CC(N)=O)NC(=O)[C@H](CO)NC(=O)[C@H](CCSC)NC(=O)[C@@H]2CSCCC(=O)N3CN(CN(C3)C(=O)CCSC[C@H](NC(C)=O)C(=O)N3CCC[C@H]3C(=O)N[C@@H](Cc3ccccc3)C(=O)NCC(=O)N2)C(=O)CCSC[C@@H](C(N)=O)NC(=O)[C@H](Cc2c[nH]c3ccccc23)NC1=O", "note": "[BCY7658, Ac-(SEQ ID NO: 12)] (Ac-CPFGCMSNWSWPIWC-NH2; linker 1-5-15 via TATA; C-terminus assumed)", "Ki": 33.6}
{"smiles": "CC[C@H](C)[C@@H]1NC(=O)[C@@H]2CCCN2C(=O)[C@H](Cc2c[nH]c3ccccc23)NC(=O)[C@H](CO)NC(=O)[C@H](Cc2c[nH]c3ccccc23)NC(=O)[C@H](CC(N)=O)NC(=O)[C@H](CCCCN)NC(=O)[C@H](CCSC)NC(=O)[C@@H]2CSCCC(=O)N3CN(CN(C3)C(=O)CCSC[C@H](NC(C)=O)C(=O)N3CCC[C@H]3C(=O)N[C@@H](Cc3ccccc3)C(=O)NCC(=O)N2)C(=O)CCSC[C@@H](C(N)=O)NC(=O)[C@H](Cc2ccccc2)NC1=O", "note": "[BCY7596, Ac-(SEQ ID NO: 91)] (Ac-CPFGCMKNWSWPIFC-NH2; linker 1-5-15 via TATA)", "Ki": 353}
